Reference: patent US20240199634A1, “CYCLIC COMPOUNDS AND METHODS OF USING SAME” (SCHRÖDINGER, INC., priority 2021, published 2024)

Legend:
[1] = molecular target: T1, Full length human CDC7 protein co-expressed with DBF4 (Homo sapiens, UniProt O00311); test: CDC7 Kinase Biochemical Assay (ADP-Glo, PDKtide substrate); settings: 0.1 nM CDC7/DBF4, 1 μM ATP, 10 μM PDKtide, 4 h reaction
T1 construct: Full length human CDC7 protein co-expressed with DBF4; purchased SignalChem (China)
Protocol: CDC7 Kinase Biochemical Assay PROTOCOL:
Full length human CDC7 protein co-expressed with DBF4 was purchased from SignalChem (China). CDC7 kinase activity was determined with PDKtide (SignalChem) as a substrate and by measuring ADP production using the ADP-Glo™ Kinase Assay kit (Promega) following the manufacturer's instructions. The kinase reaction was performed using the following conditions: Buffer: 40 mM Tris pH 7.5, 20 mM MgCl2, 0.1 mg/mL BSA and 50 μM DTT. Final reaction mix contained 0.1 nM CDC7/DBF4, 1 μM ATP and 10 μM PDKtide. The kinase reaction time was 4 h. The ADP-Glo signal was measured using an EnVision plate reader (PerkinELmer).
Percent inhibition of CDC7 kinase activity was calculated based on the following formula:
[formula] • SSample: the signal of compounds • SHigh Ctrl: the signal of high control (DMSO) • SLow Ctrl: the signal of low control (positive control CDC7 inhibitor)

[2] = system: phosphorylation of MCM2 S53 in colo205 cells; test: Phosphorylated MCM2 MSD Electrochemiluminescence Assay; type: cell-based; settings: Homo sapiens, COLO 205, 20 h incubation, read-out: pMCM2-S53 MSD Colo205 IC50
Protocol: Phosphorylated MCM2 MSD Electrochemiluminescence Assay
The effect of CDC7 inhibitors on cellular phosphorylation of the CDC7 substrate MCM2 was determined using the following protocol:
A total of 40,000 colo205 cells in 100 μL culture medium (1640 medium+10% Fetal bovine serum+1% Penicillin-Streptomycin) were plated in 96-well cell culture plates and allowed to attach for 6 hours. 3-fold serial dilutions of test compounds were prepared in completed PBS at 25× final concentration and 4 μL of each were added to the cells and incubated for 20 hours at 37° C., 5% CO2. Each concentration was tested in duplicate. After the 20 h incubation, cells were washed with 150 μL PBS and lysed with 40 μL MSD lysis buffer (obtained from Meso Scale Diagnostics) supplied with 1× complete ULTRA cocktail inhibitor (obtained from Roche). To detect phosphorylation of MCM2 S53, 30 μL of capture antibody solution (obtained from Abnova, catalog number H00004171-M01, 1:500) was added to each well of MULTI-ARRAY 96-well High Bind Plate, and incubated overnight. The antibody solution was removed, wells blocked with BSA solution and plates washed, followed by addition of 30 μl of cell lysate per well. After 2 h incubation, plates were washed. 30 μL of 1× detection antibody solution (obtained from Abcam, catalog number ab109133, 1:1000) was then added to each well and incubate for 1 hour. Plates were washed and 30 μL of 1× secondary antibody solution (obtained from MSD, catalog number R32AB-1, 1:5000) was added to each well and incubate for 1 hour. Plates were washed and 150 μL of 1× Read Buffer T was added to each well of the MSD plate. The electrochemiluminescence signal was measured on a MESO SECTOR 5600 plate reader. The percentage of remaining phosphorylated MCM2 signal was calculated following the equation below.
[formula] • HC (high control): Cells treated with DMSO • Cpds: Cells treated with test compounds • LC (low control): Cells treated with positive control CDC7 inhibitor

T1 sequence (O00311 whole entry): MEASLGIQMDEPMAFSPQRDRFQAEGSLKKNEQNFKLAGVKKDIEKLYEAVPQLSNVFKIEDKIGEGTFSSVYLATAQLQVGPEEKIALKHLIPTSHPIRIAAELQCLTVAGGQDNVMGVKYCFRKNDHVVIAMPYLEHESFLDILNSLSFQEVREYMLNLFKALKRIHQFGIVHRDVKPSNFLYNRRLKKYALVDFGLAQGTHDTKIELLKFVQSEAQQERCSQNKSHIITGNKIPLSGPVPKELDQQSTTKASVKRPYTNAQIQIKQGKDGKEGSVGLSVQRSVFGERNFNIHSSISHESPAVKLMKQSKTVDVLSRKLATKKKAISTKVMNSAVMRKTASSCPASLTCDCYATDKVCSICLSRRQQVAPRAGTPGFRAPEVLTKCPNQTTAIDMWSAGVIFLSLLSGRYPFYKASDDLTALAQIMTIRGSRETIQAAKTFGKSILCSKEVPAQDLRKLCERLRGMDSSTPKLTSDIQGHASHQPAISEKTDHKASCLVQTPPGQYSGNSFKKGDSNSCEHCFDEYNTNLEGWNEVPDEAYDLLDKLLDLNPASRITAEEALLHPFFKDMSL
T1 sequence (Q9UBU7 whole entry partner): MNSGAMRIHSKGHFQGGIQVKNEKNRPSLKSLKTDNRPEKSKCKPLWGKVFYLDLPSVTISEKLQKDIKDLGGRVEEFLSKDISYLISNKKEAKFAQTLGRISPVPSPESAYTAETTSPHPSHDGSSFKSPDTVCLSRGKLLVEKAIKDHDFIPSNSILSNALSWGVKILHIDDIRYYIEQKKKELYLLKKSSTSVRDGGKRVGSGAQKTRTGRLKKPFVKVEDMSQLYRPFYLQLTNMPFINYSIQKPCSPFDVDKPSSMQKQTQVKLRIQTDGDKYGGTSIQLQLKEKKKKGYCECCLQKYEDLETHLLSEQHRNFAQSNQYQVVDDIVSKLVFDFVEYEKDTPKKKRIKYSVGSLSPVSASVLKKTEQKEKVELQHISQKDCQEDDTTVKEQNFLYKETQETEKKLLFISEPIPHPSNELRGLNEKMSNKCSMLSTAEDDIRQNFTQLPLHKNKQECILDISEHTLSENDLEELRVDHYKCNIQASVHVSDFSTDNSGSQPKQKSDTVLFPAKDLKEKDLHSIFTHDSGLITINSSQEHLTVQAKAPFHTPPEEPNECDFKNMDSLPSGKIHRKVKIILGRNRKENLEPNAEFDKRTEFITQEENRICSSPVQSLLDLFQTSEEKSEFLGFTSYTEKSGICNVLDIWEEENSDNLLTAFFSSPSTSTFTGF

Row | IC50 [1] [nM] | IC50 [2] [nM] | SMILES
1 | ≤ 1 | 5 to 20 | CCC1(O)COCc2c1[nH]c(=O)c1sc(-c3cn[nH]c3)cc21 (single isomer, unassigned) [Compound 18]
2 | ≤ 1 | ≤ 5 | CC(C)(C)[C@@]1(O)COCc2c1[nH]c(=O)c1sc(-c3cn[nH]c3)cc21 (single isomer, unassigned) [Compound 20]
3 | ≤ 1 | ≤ 5 | CC(C)C1(O)COCc2c1[nH]c(=O)c1sc(-c3c[nH]nc3F)cc21 (single isomer, unassigned) [Compound 27]
4 | ≤ 1 | 5 to 20 | Cc1n[nH]cc1-c1cc2c3c([nH]c(=O)c2s1)C(O)(C(F)(F)F)COC3 (single isomer, unassigned) [Compound 32]
5 | ≤ 1 | 5 to 20 | O=c1[nH]c2c(c3cc(-c4cn[nH]c4)sc13)CCCC2(O)C(F)F (single isomer, unassigned) [Compound 37]
6 | 1 to 10 | > 50 | CC1(O)CCCc2c1[nH]c(=O)c1sc(-c3cn[nH]c3)cc21 (single isomer, unassigned) [Compound 41]
7 | ≤ 1 | 5 to 20 | CC(C)C1(O)COCc2c1[nH]c(=O)c1sc(-c3ccncc3)cc21 (single isomer, unassigned) [Compound 44]
8 | ≤ 1 | 5 to 20 | CC(C)C1(O)COCc2c1[nH]c(=O)c1sc(-c3ccns3)cc21 (single isomer, unassigned) [Compound 46]
9 | ≤ 1 | ≤ 5 | CCC1(O)CC(F)(F)Cc2c1[nH]c(=O)c1sc(-c3cn[nH]c3)cc21 (single isomer, unassigned) [Compound 51]
10 | > 10 | ≤ 5 | Cc1n[nH]cc1-c1cc2c3c([nH]c(=O)c2s1)C(O)(C(C)(C)C)COC3 (single isomer, unassigned) [Compound 91]
11 | ≤ 1 | 20 to 50 | COC12CCC(CC1)c1c2[nH]c(=O)c2sc(-c3cn[nH]c3)cc12 [Compound 7, 6-methoxy-2-(1H-pyrazol-4-yl)-6,7,8,9-tetrahydro-6,9-ethanothieno[2,3-c]quinolin-4(5H)-one]
12 | 1 to 10 | > 50 | CC1(C)COCc2c1[nH]c(=O)c1sc(-c3cn[nH]c3)cc21 [Compound 58, 4,4-dimethyl-8-(1H-pyrazol-4-yl)-1,3,4,5-tetrahydro-6H-pyrano[4,3-b]thieno[3,2-d]pyridin-6-one]
13 | ≤ 1 | > 50 | CC(C)(C)[C@@]1(O)COCc2c1[nH]c(=O)c1sc(N3CCOCC3)cc21 [Compound 85, (S)-4-(tert-butyl)-4-hydroxy-8-morpholino-1,3,4,5-tetrahydro-6H-pyrano[4,3-b]thieno[3,2-d]pyridin-6-one]

Continued, compound first:

Row | SMILES | IC50 [1] [nM] | IC50 [2] [nM]
14 | CC(C)C1(O)COCc2c1[nH]c(=O)c1sc(-c3cn[nH]c3)cc21 (single isomer, unassigned) [Compound 16] | ≤ 1 | ≤ 5
15 | CC(C)(C)[C@@]1(O)COCc2c1[nH]c(=O)c1sc(-c3ccncc3)cc21 (single isomer, unassigned) [Compound 22] | ≤ 1 | ≤ 5
16 | Cn1nccc1-c1cc2c3c([nH]c(=O)c2s1)C(O)(C(F)(F)F)COC3 (single isomer, unassigned) [Compound 30] | ≤ 1 | > 50
17 | O=c1[nH]c2c(c3cc(-c4cn[nH]c4)sc13)COCC2(O)C(F)F (single isomer, unassigned) [Compound 42] | ≤ 1 | 20 to 50
18 | CC(C)(C)C1(O)COCc2c1[nH]c(=O)c1sc(-c3ccncc3F)cc21 (single isomer, unassigned) [Compound 59] | ≤ 1 | ≤ 5
19 | Cc1cnccc1-c1cc2c3c([nH]c(=O)c2s1)C(O)(C(C)(C)C)COC3 (single isomer, unassigned) [Compound 69] | ≤ 1 | 5 to 20
20 | Cn1nccc1-c1cc2c3c([nH]c(=O)c2s1)C(O)(C(C)(C)C)COC3 (single isomer, unassigned) [Compound 89] | ≤ 1 | 5 to 20
21 | O=c1[nH]c2c(c3cc(-c4cn[nH]c4)sc13)C1CCC2(O)CC1 [Compound 8, 6-hydroxy-2-(1H-pyrazol-4-yl)-6,7,8,9-tetrahydro-6,9-ethanothieno[2,3-c]quinolin-4(5H)-one] | ≤ 1 | 20 to 50
22 | CC(C)(C)C1(O)CNCc2c1[nH]c(=O)c1sc(-c3cn[nH]c3)cc21 (centres unmarked) [Compound 93, 4-(tert-butyl)-4-hydroxy-8-(1H-pyrazol-4-yl)-1,3,4,5-tetrahydrothieno[2,3-c][1,6]naphthyridin-6(2H)-one] | ≤ 1 | 20 to 50
